Experimental data taken from patent US11254663B2 (BRISTOL-MYERS SQUIBB COMPANY, priority 2019, dated 2022).
pEC50: −log10 of the molar value.

target: FXR (Homo sapiens (Human), UniProt Q96RI1); test: transient human FXR/Gal4-luciferase reporter assay; assay type: cell-based; details: not given
Summary of the method: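 Compound exposure ran overnight at 37 °C and activity was measured as luminescence with Steady-Glo reagent. The cells were a HEK293 line stably expressing firefly luciferase under five Gal4 response elements. They were transiently transfected, one night beforehand, with a plasmid encoding Gal4 DNA-binding domain fused to the human FXR ligand-binding domain.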

FXR, sequence (Q96RI1 262-486): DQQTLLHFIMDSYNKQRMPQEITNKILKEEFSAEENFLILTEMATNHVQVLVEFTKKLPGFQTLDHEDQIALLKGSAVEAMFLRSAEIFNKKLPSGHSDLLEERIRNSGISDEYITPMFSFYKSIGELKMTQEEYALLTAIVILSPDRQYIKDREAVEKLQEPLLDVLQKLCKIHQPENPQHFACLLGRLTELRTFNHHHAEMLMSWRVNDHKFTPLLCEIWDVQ

SMILES	pEC50
CC(C)(C)c1nc(C23CCC(CN(C(=O)C45CC(F)(C4)C5)c4cc(-c5cnc6nc(C7CC7)sc6c5)ccn4)(CC2)CC3)no1 [Example 535, N-((4-(5-(tert-butyl)-1,2,4-oxadiazol-3-yl)bicyclo[2.2.2]octan-1-yl)methyl)-N-(4-(2-cyclopropylthiazolo[4,5-b]pyridin-6-yl)pyridin-2-yl)-3-fluorobicyclo[1.1.1]pentane-1-carboxamide]	6.69
CCOc1ccc(-c2ccnc(N(CC34CCC(c5noc(C(C)(C)C)n5)(CC3)CC4)C(=O)C34CC(F)(C3)C4)c2)cn1 [Example 536, N-((4-(5-(tert-butyl)-1,2,4-oxadiazol-3-yl)bicyclo[2.2.2]octan-1-yl)methyl)-N-(6-ethoxy-[3,4′-bipyridin]-2′-yl)-3-fluorobicyclo[1.1.1]pentane-1-carboxamide]	7.54
Cc1nc2ccc(-c3ccnc(N(CC45CCC(c6noc(C(C)(C)C)n6)(CC4)CC5)C(=O)C45CC(F)(C4)C5)c3)cc2s1 [Example 537, N-((4-(5-(tert-butyl)-1,2,4-oxadiazol-3-yl)bicyclo[2.2.2]octan-1-yl)methyl)-3-fluoro-N-(4-(2-methylbenzo[d]thiazol-6-yl)pyridin-2-yl)bicyclo[1.1.1]pentane-1-carboxamide]	7.17
COc1ncc(-c2ccnc(N(CC34CCC(c5noc(C(C)(C)C)n5)(CC3)CC4)C(=O)C34CC(F)(C3)C4)c2)cn1 [Example 538, N-((4-(5-(tert-butyl)-1,2,4-oxadiazol-3-yl)bicyclo[2.2.2]octan-1-yl)methyl)-3-fluoro-N-(4-(2-methoxypyrimidin-5-yl)pyridin-2-yl)bicyclo[1.1.1]pentane-1-carboxamide]	6.92
CC(C)(C)c1nc(C23CCC(CN(C(=O)C45CC(F)(C4)C5)c4cc(-c5cnc(C6CC6)nc5)ccn4)(CC2)CC3)no1 [Example 539, N-((4-(5-(tert-butyl)-1,2,4-oxadiazol-3-yl)bicyclo[2.2.2]octan-1-yl)methyl)-N-(4-(2-cyclopropylpyrimidin-5-yl)pyridin-2-yl)-3-fluorobicyclo[1.1.1]pentane-1-carboxamide]	6.92
CC(C)(C)c1nc(C23CCC(CN(C(=O)C45CC(F)(C4)C5)c4cc(-c5ccc6[nH]c(=O)oc6c5)ccn4)(CC2)CC3)no1 [Example 540, N-((4-(5-(tert-butyl)-1,2,4-oxadiazol-3-yl)bicyclo[2.2.2]octan-1-yl)methyl)-3-fluoro-N-(4-(2-oxo-2,3-dihydrobenzo[d]oxazol-6-yl)pyridin-2-yl)bicyclo[1.1.1]pentane-1-carboxamide]	7.15
CCOc1cnc(-c2ccnc(N(CC34CCC(c5noc(C(C)(C)C)n5)(CC3)CC4)C(=O)C34CC(F)(C3)C4)c2)nc1 [Example 542, N-((4-(5-(tert-butyl)-1,2,4-oxadiazol-3-yl)bicyclo[2.2.2]octan-1-yl)methyl)-N-(4-(5-ethoxypyrimidin-2-yl)pyridin-2-yl)-3-fluorobicyclo[1.1.1]pentane-1-carboxamide]	7.66
CCc1cnc(-c2ccnc(N(CC34CCC(c5noc(C(C)(C)C)n5)(CC3)CC4)C(=O)C34CC(F)(C3)C4)c2)nc1 [Example 543, N-((4-(5-(tert-butyl)-1,2,4-oxadiazol-3-yl)bicyclo[2.2.2]octan-1-yl)methyl)-N-(4-(5-ethylpyrimidin-2-yl)pyridin-2-yl)-3-fluorobicyclo[1.1.1]pentane-1-carboxamide]	7.85
CC(C)(C)c1nc(C23CCC(CN(C(=O)C45CC(F)(C4)C5)c4cc(-c5ccc(OC(F)F)cn5)ccn4)(CC2)CC3)no1 [Example 544, N-((4-(5-(tert-butyl)-1,2,4-oxadiazol-3-yl)bicyclo[2.2.2]octan-1-yl)methyl)-N-(5-(difluoromethoxy)-[2,4′-bipyridin]-2′-yl)-3-fluorobicyclo[1.1.1]pentane-1-carboxamide]	7.70
Cc1nc2ccc(-c3ccnc(N(CC45CCC(c6cc(C7CC7)nn6C)(CC4)CC5)C(=O)C45CC(F)(C4)C5)c3)cc2s1 [Example 546, N-((4-(3-cyclopropyl-1-methyl-1H-pyrazol-5-yl)bicyclo[2.2.2]octan-1-yl)methyl)-3-fluoro-N-(4-(2-methylbenzo[d]thiazol-6-yl)pyridin-2-yl)bicyclo[1.1.1]pentane-1-carboxamide]	7.32
Cn1nc(C2CC2)cc1C12CCC(CN(C(=O)C34CC(F)(C3)C4)c3cc(-c4ccc(NS(C)(=O)=O)cc4)ccn3)(CC1)CC2 [Example 547, N-((4-(3-cyclopropyl-1-methyl-1H-pyrazol-5-yl)bicyclo[2.2.2]octan-1-yl)methyl)-3-fluoro-N-(4-(4-(methylsulfonamido)phenyl)pyridin-2-yl)bicyclo[1.1.1]pentane-1-carboxamide]	6.60
Cc1nc2ccc(-c3cccc(N(CC45CCC(c6nc(C7CC7)no6)(CC4)CC5)C(=O)C45CC(F)(C4)C5)c3)cc2s1 [Example 555, N-((4-(3-cyclopropyl-1,2,4-oxadiazol-5-yl)bicyclo[2.2.2]octan-1-yl)methyl)-3-fluoro-N-(3-(2-methylbenzo[d]thiazol-6-yl)phenyl)bicyclo[1.1.1]pentane-1-carboxamide]	7.26

same assay, conditions: Gal4-hFXR fusion construct, HEK293 reporter cells; response relative to 8 μM GW-4064

pEC50	SMILES
7.74	CC(C)(C)c1nc(C23CCC(CN(C(=O)C45CC(F)(C4)C5)c4cc(-c5ncc(OC(F)F)cn5)ccn4)(CC2)CC3)no1 [Example 541, N-((4-(5-(tert-butyl)-1,2,4-oxadiazol-3-yl)bicyclo[2.2.2]octan-1-yl)methyl)-N-(4-(5-(difluoromethoxy)pyrimidin-2-yl)pyridin-2-yl)-3-fluorobicyclo[1.1.1]pentane-1-carboxamide]
6.94	Cn1nc(C2CC2)cc1C12CCC(CN(C(=O)C34CC(F)(C3)C4)c3cc(-c4ccc(OC(F)F)cc4)ccn3)(CC1)CC2 [Example 545, N-((4-(3-cyclopropyl-1-methyl-1H-pyrazol-5-yl)bicyclo[2.2.2]octan-1-yl)methyl)-N-(4-(4-(difluoromethoxy)phenyl)pyridin-2-yl)-3-fluorobicyclo[1.1.1]pentane-1-carboxamide]
6.95	CCOc1ncc(-c2ccnc(N(CC34CCC(c5nc(C6CC6)no5)(CC3)CC4)C(=O)C34CC(F)(C3)C4)c2)cn1 [Example 548, N-((4-(3-cyclopropyl-1,2,4-oxadiazol-5-yl)bicyclo[2.2.2]octan-1-yl)methyl)-N-(4-(2-ethoxypyrimidin-5-yl)pyridin-2-yl)-3-fluorobicyclo[1.1.1]pentane-1-carboxamide]
7.44	Cc1nc2ccc(-c3ccnc(N(CC45CCC(c6nc(C7CC7)no6)(CC4)CC5)C(=O)C45CC(F)(C4)C5)c3)cc2s1 [Example 549, N-((4-(3-cyclopropyl-1,2,4-oxadiazol-5-yl)bicyclo[2.2.2]octan-1-yl)methyl)-3-fluoro-N-(4-(2-methylbenzo[d]thiazol-6-yl)pyridin-2-yl)bicyclo[1.1.1]pentane-1-carboxamide]
7.15	Cc1nc2ccc(-c3ccnc(N(CC45CCC(c6nc(C7CC7)no6)(CC4)CC5)C(=O)C45CC(F)(C4)C5)c3)cc2o1 [Example 550, N-((4-(3-cyclopropyl-1,2,4-oxadiazol-5-yl)bicyclo[2.2.2]octan-1-yl)methyl)-3-fluoro-N-(4-(2-methylbenzo[d]oxazol-6-yl)pyridin-2-yl)bicyclo[1.1.1]pentane-1-carboxamide]
7.26	Cc1nc2ccc(-c3ccnc(N(CC45CCC(c6nc(C(C)(C)C)no6)(CC4)CC5)C(=O)C45CC(F)(C4)C5)c3)cc2s1 [Example 551, N-((4-(3-(tert-butyl)-1,2,4-oxadiazol-5-yl)bicyclo[2.2.2]octan-1-yl)methyl)-3-fluoro-N-(4-(2-methylbenzo[d]thiazol-6-yl)pyridin-2-yl)bicyclo[1.1.1]pentane-1-carboxamide]
6.44	CCOc1ncc(-c2cccc(N(CC34CCC(c5ncc(OC)cn5)(CC3)CC4)C(=O)C34CC(F)(C3)C4)c2)cn1 [Example 552, N-(3-(2-ethoxypyrimidin-5-yl)phenyl)-3-fluoro-N-((4-(5-methoxypyrimidin-2-yl)bicyclo[2.2.2]octan-1-yl)methyl)bicyclo[1.1.1]pentane-1-carboxamide]
5.80	CCOc1ncc(-c2cccc(N(CC34CCC(c5nc(C(C)(C)C)no5)(CC3)CO4)C(=O)C34CC(F)(C3)C4)c2)cn1 [Example 553, N-((4-(3-(tert-butyl)-1,2,4-oxadiazol-5-yl)-2-oxabicyclo[2.2.2]octan-1-yl)methyl)-N-(3-(2-ethoxypyrimidin-5-yl)phenyl)-3-fluorobicyclo[1.1.1]pentane-1-carboxamide]
6.63	Cc1nc2ccc(-c3cccc(N(CC45CCC(c6nc(C7CC7)no6)(CC4)CC5)C(=O)C4CC(F)(F)C4)c3)cc2s1 [Example 554, N-((4-(3-cyclopropyl-1,2,4-oxadiazol-5-yl)bicyclo[2.2.2]octan-1-yl)methyl)-3,3-difluoro-N-(3-(2-methylbenzo[d]thiazol-6-yl)phenyl)cyclobutane-1-carboxamide]
6.09	COc1ccc(C23CCC(CN(C(=O)C45CC(F)(C4)C5)c4cccc(-c5ccc6nc(C)sc6c5)c4)(CC2)CO3)cc1 [Example 556, 3-Fluoro-N-((1-(4-methoxyphenyl)-2-oxabicyclo[2.2.2]octan-4-yl)methyl)-N-(3-(2-methylbenzo[d]thiazol-6-yl)phenyl)bicyclo[1.1.1]pentane-1-carboxamide]
5.80	COc1ccc(C23CCC(CN(C(=O)C4CC(F)(F)C4)c4cccc(-c5ccc6nc(C)sc6c5)c4)(CC2)CO3)cc1 [Example 557, 3,3-Difluoro-N-((1-(4-methoxyphenyl)-2-oxabicyclo[2.2.2]octan-4-yl)methyl)-N-(3-(2-methylbenzo[d]thiazol-6-yl)phenyl)cyclobutane-1-carboxamide]
6.25	COc1ncc(C23CCC(CN(C(=O)C45CC(F)(C4)C5)c4cccc(-c5ccc6nc(C)sc6c5)c4)(CC2)CO3)cn1 [Example 558, 3-Fluoro-N-((1-(2-methoxypyrimidin-5-yl)-2-oxabicyclo[2.2.2]octan-4-yl)methyl)-N-(3-(2-methylbenzo[d]thiazol-6-yl)phenyl)bicyclo[1.1.1]pentane-1-carboxamide]
